Source: publication PMC11219871, “Epigenetic-based differentiation therapy for Acute Myeloid Leukemia” (Nature Communications, 2024)
Where “and” joins values, the source holds several entries; their conditions need not be identical. Equal entries are not always repeated.

Key:
G9a = biological target: T1, G9a (Homo sapiens, UniProt Q96KQ7); test: Epigenetic panel (BPS Bioscience); G9a TR-FRET IC50; type: biochemical
T1 sequence (Q96KQ7 1-1210): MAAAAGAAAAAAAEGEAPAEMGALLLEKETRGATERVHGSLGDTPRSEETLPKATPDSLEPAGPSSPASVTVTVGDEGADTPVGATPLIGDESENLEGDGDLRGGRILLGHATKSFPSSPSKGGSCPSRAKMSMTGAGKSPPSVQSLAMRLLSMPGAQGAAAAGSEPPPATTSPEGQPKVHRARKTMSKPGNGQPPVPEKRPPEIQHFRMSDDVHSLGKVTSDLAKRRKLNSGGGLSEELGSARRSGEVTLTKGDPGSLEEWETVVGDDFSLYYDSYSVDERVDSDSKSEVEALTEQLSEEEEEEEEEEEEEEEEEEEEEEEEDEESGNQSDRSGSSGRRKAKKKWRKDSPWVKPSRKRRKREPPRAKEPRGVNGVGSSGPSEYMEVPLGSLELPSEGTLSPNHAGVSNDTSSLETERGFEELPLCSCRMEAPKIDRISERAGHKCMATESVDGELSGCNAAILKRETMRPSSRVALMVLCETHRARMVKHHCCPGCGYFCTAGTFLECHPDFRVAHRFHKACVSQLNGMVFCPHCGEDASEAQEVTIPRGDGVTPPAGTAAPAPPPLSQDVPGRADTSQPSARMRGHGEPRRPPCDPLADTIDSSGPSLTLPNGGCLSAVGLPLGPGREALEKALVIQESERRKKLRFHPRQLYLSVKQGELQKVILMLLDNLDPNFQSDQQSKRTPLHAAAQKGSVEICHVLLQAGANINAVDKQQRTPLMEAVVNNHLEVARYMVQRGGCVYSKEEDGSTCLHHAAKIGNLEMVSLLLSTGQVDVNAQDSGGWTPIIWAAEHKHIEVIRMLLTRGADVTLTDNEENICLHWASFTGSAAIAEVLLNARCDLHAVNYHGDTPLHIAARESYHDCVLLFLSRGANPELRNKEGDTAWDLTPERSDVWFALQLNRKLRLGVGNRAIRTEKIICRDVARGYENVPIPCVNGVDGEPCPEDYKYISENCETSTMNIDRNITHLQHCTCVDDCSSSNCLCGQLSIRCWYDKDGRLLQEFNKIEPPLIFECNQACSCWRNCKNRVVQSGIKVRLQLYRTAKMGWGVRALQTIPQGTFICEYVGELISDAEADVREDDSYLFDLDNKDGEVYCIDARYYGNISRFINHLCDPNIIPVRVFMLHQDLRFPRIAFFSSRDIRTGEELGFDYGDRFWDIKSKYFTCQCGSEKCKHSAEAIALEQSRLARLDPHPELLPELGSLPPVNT
Protocol: DNMT1 and G9a IC50 values were measured using time-resolved fluorescence energy transfer assays, as described previously[18],[25],[26].
Binding experiments were performed in duplicate at a concentration of 10 μM.

[1] = tested on: MV4-11 xenograft in BALB/cA Rag2-/-γc-/- mice; test: Subcutaneous xenograft model (tumor volume, CD11b q-PCR, H3Ac, body weight); type: in vivo, mouse; settings: for Tumor volume: MV4-11 subcutaneous xenograft, in mm³; for Tumor volume / body weight of mice: individual mice; for body weight of mice: subcutaneous MV4-11 AML mouse model
Protocol: (§1) The subcutaneous xenograft models of ML-2 and MV4-11 derived cells, 5 × 10^6 and 10 × 10^6 cells, respectively, diluted in 100 µL of saline solution were subcutaneously inoculated in the back left flank of female BALB/cA Rag2^−/−γc^−/− mice. When tumors became palpable, the mice were randomized into three groups: vehicle, CM-444 and CM-1758, (eight animals/group). Treatment with 10 mg/kg of CM-444 or CM-1758 i.p. was started 4 days after injection when all mice presented subcutaneous tumors and was administered for 5 consecutive days followed by 2 resting days over 3 weeks for the ML-2 model or daily for 2 weeks for the MV4-11 model. The control group received only 80% saline solution, 10% DMSO […] 10% Tween 20 (diluents of CM-444 and CM-1758). Tumor size was analyzed every 2–3 days using the following method: […], where D and d corresponded to the longest and shortest diameter, respectively. The maximal tumor size/burden permitted by the Animal Care and Ethics Committee of the University of Navarra is 2000 mm^3. This maximal tumor size/burden was not exceeded in any case. ML-2 and MV4-11 tumors were explanted for differentiation and global histone acetylation analysis. Histones were extracted, and a western blot of H3Ac was performed as described above. For the differentiation study, RNA was extracted, and q-PCR of CD11b was performed as described above (CD11b sequence primer can be found in Supplementary Table 10).

[2] = tested on: ML-2 xenograft in BALB/cA Rag2-/-γc-/- mice; test: as above; type: in vivo, mouse; settings: for Tumor volume: ML-2 subcutaneous xenograft, individual mice (Fig 3B), in mm³; for body weight of mice: subcutaneous ML-2 AML mouse model, individual mice
Protocol: as §1

COc1cc2nc(-c3cc(C)oc3C)cc(NCC3CCN(c4ncc(C(=O)NO)cn4)CC3)c2cc1OC [CM-1758, 2-[4-[[[2-(2,5-dimethyl-3-furyl)-6,7-dimethoxy-4-quinolyl]amino]methyl] -1-piperidyl]pyrimidine-5-carbohydroxamic acid]
IC50 (G9a): > 10 µM
inhibition at 10 µM (G9a; 10 µM): 9%
CD11b expression in explanted tumors ([1]; MV4-11 s.c., 10 mg/kg i.p.): significant increase in CD11b expression
H3Ac levels in tumors ([1]; MV4-11 s.c., 10 mg/kg i.p.): increase in H3Ac levels
tumor growth ([1]; MV4-11 s.c., 10 mg/kg i.p. daily, 2 weeks): inhibited tumor growth significantly
Tumor volume ([1]; day 0): 0
Tumor volume ([1]; day 7): 3.017
Tumor volume ([1]; day 9): 146.917 and 71.6651 and 143.551 and 106.303 and 28.6195 and 85.1833 and 49.7152 and 104.914 and 63.9744 and 234.732
Tumor volume ([1]; day 12): 419.824 and 122.408 and 229.873 and 238.093 and 102.721 and 299.024 and 103.513 and 178.679 and 140.065 and 433.026
Tumor volume ([1]; day 14): 415.95 and 158.115 and 375.793 and 401.985 and 154.443 and 348.449 and 102.044 and 262.858 and 231.325 and 547.206
Relative H3Ac/H3 total levels ([1]; after in vivo treatment, subcutaneous MV4-11 mouse model, western blot, individual tumors): 1.267 and 1.234 and 1.332 and 1.244 and 1.416 and 1.49
body weight of mice ([1]; day 1, in g (unit assumed)): 23.6 and 18.5 and 22.2 and 22.3 and 23.2 and 21.8 and 24.2 and 20.2 and 19.5 and 21.3
body weight of mice ([1]; day 5): 21.3 and 16.3 and 21.5 (2×) and 21.2 and 22.1 and 23 and 20 (2×) and 20.2
body weight of mice ([1]; day 7): 20.5 and 16.4 and 21.3 and 21.6 and 20.8 and 23.9 and 19.5 (2×) and 19.3 and 19.8
body weight of mice ([1]; day 9, in g (unit assumed)): 21 and 17.1 and 21.6 and 21.1 and 21.7 and 20.2 and 23.4 and 19.3 and 19.8 and 20.4
body weight of mice ([1]; day 12, in g (unit assumed)): 21.3 and 18 and 22.5 and 21.9 and 22.2 and 21.8 and 23.6 and 19.9 and 20.4 and 21.5
body weight of mice ([1]; day 14): 21.4 and 17.3 and 21.1 and 21.6 (2×) and 21.8 and 23.6 and 20 and 20.5 and 21
body weight of mice ([1]; day 16): 22.2 (2×) and 18.1 and 21.8 and 21.5 and 22.3 and 24.4 and 20.3 and 20.9 and 21.7
CD11b expression, log10 (2-ΔΔCt) ([1]; tumors of the subcutaneous MV4-11 model, q-PCR, individual tumors): 0.854 and 1.2584 and 2.36 and 1.145 and 1.034
CD11b expression in explanted tumors ([2]; ML-2 s.c., 10 mg/kg i.p.): significant increase in CD11b expression
H3Ac levels in tumors ([2]; ML-2 s.c., 10 mg/kg i.p.): increase in H3Ac levels
tumor growth ([2]; ML-2 s.c., 10 mg/kg i.p., 5 days on/2 off, 3 weeks): inhibited tumor growth significantly
Tumor volume ([2]; day 0): 0
Tumor volume ([2]; day 8): 47.3386 and 22.9378 and 56.1402 and 38.666 and 38.4941 and 0 and 12.669 and 19.4742
Tumor volume ([2]; day 11): 71.6377 and 35.2331 and 55.0976 and 24.3685 and 43.9734 and 8.639 and 15.4625 and 6.7915
Tumor volume ([2]; day 13): 158.593 and 184.271 and 192.133 and 111.517 and 131.043 and 16.1706 and 35.0775 and 32.6327
Tumor volume ([2]; day 15): 338.357 and 436.616 and 344.697 and 149.062 and 276.144 and 73.6819 and 103.063 and 52.9756
Tumor volume ([2]; day 18): 450.141 and 971.066 and 667.169 and 309.135 and 557.655 and 200.834 and 266.198 and 84.0917
Tumor volume ([2]; day 20): 750.162 and 778.307 and 425.752 and 619.516 and 424.823 and 364.169 and 387.08 and 367.037
Relative H3Ac/H3 total levels ([2]; after in vivo treatment, subcutaneous ML-2 mouse model, western blot, individual tumors): 1.2836 and 1.288 and 1.719 and 8.364 and 1.323 and 1.1332
body weight of mice ([2]; day 4, in g (unit assumed)): 23.8 and 22.2 and 25.1 and 23.3 and 24.6 and 21 and 23.7 and 24.3
body weight of mice ([2]; day 6, in g (unit assumed)): 23 and 20.6 and 24.5 and 22.4 and 23.6 and 21.2 and 22.8 and 24.2
body weight of mice ([2]; day 8): 22.9 (2×) and 20.3 and 23.8 and 22.4 and 21.2 and 22 and 23.5
body weight of mice ([2]; day 11, in g (unit assumed)): 23 and 22.4 and 24.2 and 23.7 and 23.9 and 21.1 and 23.2 and 25.2
body weight of mice ([2]; day 13): 23 (2×) and 21.6 and 24.6 and 24 and 23.4 and 22 and 25.4
body weight of mice ([2]; day 15): 22.8 and 22 and 24.5 and 23.6 (2×) and 20.9 and 22.4 and 24.7
body weight of mice ([2]; day 18, in g (unit assumed)): 22.9 and 21.9 and 23.9 and 24 and 22.8 and 20.8 and 21.6 and 24.1
body weight of mice ([2]; day 20): 22.1 and 20.8 (2×) and 23.3 (2×) and 19.4 and 19.9 and 23.7
CD11b expression from tumors measured by q-PCR ([2]; tumors of the subcutaneous ML-2 model, individual tumors (Fig 3C)): 1.158 log10 (2-ΔΔCt) and 2.588 log10 (2-ΔΔCt) and 4.58 log10 (2-ΔΔCt) and 3.25 log10 (2-ΔΔCt) and 2.2558 log10 (2-ΔΔCt)
